The numbers were not newly measured in patent publication US6187938A, “ω-amino acid derivatives, processes of their preparation and their use” (Bochemie, s.r.o., priority 1997, dated 2001), which cites them from elsewhere.

Structures are written as SMILES.

The data set deals with skin. To be noted: in presence of petrolatum; Stoughton, McClure 1983.

For `CCCCCCCCCCCCN1CCCCCC1=O` [laurocapram, 1-dodecylazacycloheptan-2-one], the “inhibition of permeation enhancing effect by paraffinic auxiliary substances (e.g., petrolatum)” value was “completely inhibit”.
